{"source": "paper PMC11887051", "about": "“Discovery of ONO-2920632 (VU6011887): A Highly Selective and CNS Penetrant TREK-2 (TWIK-Related K+ Channel 2) Preferring Activator In Vivo Tool Compound” (ACS Chemical Neuroscience, 2025)", "key": {"[1]": {"molecular_target": "Histamine H3 (Homo sapiens, UniProt Q9Y5N1)", "test": "Eurofins Lead Profiling radioligand binding", "settings": "title: 30 μM"}, "[2]": {"molecular_target": "Muscarinic M3 (Homo sapiens, UniProt P20309)", "sequence (P20309 whole entry)": "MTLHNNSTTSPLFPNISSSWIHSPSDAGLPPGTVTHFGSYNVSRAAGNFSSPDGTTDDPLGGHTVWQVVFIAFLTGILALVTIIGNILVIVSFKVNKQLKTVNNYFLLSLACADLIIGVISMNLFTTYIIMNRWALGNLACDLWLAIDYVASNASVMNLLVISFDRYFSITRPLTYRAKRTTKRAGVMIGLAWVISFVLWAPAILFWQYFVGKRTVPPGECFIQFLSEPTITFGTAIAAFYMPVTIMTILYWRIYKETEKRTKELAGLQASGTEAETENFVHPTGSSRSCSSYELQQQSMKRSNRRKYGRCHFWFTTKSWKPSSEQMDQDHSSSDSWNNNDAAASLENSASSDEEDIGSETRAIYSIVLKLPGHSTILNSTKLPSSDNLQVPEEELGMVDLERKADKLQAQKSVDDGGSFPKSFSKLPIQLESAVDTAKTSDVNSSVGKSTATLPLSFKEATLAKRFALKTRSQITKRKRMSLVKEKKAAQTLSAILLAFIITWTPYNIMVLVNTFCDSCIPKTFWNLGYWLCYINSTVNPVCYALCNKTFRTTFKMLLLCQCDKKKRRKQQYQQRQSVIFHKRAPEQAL", "test": "Eurofins Lead Profiling radioligand binding", "settings": "title: 30 μM"}, "[3]": {"system": "GABAA, Muscimol, Central", "test": "Eurofins Lead Profiling radioligand binding", "design": "species or system Rat", "settings": "title: 30 μM"}, "[4]": {"molecular_target": "Epidermal Growth Factor (EGF) (Homo sapiens, UniProt P00533)", "test": "Eurofins Lead Profiling radioligand binding", "settings": "title: 30 μM"}, "[5]": {"molecular_target": "Adenosine A1 (Homo sapiens, UniProt P30542)", "sequence (P30542 whole entry)": "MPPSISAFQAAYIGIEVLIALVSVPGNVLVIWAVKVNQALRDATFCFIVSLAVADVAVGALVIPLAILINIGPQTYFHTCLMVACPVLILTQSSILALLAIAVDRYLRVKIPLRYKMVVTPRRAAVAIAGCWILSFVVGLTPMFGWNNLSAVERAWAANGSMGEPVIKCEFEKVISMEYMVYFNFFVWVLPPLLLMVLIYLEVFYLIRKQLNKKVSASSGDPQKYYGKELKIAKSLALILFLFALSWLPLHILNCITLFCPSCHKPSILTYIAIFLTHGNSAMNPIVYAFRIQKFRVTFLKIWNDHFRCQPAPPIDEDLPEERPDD", "test": "Eurofins Lead Profiling radioligand binding", "settings": "title: 30 μM"}, "[6]": {"molecular_target": "Dopamine D1 (Homo sapiens, UniProt P21728)", "test": "Eurofins Lead Profiling radioligand binding", "settings": "title: 30 μM"}, "[7]": {"system": "Glycine, Strychnine-Sensitive", "test": "Eurofins Lead Profiling radioligand binding", "design": "species or system Rat", "settings": "title: 30 μM"}, "[8]": {"molecular_target": "Androgen (Testosterone) (Homo sapiens, UniProt P10275)", "sequence (P10275 whole entry)": "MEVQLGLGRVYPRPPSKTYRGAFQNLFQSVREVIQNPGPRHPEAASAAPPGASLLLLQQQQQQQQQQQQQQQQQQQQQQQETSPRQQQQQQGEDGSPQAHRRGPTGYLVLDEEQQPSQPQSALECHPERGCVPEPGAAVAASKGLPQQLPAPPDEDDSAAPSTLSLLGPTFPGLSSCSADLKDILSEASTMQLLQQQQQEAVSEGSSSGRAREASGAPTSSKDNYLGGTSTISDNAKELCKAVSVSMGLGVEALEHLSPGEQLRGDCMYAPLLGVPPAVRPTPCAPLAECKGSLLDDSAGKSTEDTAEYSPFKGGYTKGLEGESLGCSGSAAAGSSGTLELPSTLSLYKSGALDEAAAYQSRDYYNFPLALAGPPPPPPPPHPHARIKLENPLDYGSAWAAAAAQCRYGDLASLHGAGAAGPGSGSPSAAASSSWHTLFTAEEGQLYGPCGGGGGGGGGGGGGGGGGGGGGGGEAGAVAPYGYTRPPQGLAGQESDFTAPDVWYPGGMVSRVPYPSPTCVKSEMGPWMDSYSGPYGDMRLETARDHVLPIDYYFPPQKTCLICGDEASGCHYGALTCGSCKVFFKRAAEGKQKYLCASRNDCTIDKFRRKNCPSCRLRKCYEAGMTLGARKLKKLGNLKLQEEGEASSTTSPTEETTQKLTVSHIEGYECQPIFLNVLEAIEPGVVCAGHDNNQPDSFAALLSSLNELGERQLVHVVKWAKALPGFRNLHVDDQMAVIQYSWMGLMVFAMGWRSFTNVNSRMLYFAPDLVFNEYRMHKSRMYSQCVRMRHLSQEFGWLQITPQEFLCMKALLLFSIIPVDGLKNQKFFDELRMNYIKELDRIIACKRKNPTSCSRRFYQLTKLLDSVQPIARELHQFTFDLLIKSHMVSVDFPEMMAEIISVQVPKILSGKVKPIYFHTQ", "test": "Eurofins Lead Profiling radioligand binding", "settings": "title: 30 μM"}, "[9]": {"molecular_target": "Muscarinic M1 (Homo sapiens, UniProt P11229)", "sequence (P11229 whole entry)": "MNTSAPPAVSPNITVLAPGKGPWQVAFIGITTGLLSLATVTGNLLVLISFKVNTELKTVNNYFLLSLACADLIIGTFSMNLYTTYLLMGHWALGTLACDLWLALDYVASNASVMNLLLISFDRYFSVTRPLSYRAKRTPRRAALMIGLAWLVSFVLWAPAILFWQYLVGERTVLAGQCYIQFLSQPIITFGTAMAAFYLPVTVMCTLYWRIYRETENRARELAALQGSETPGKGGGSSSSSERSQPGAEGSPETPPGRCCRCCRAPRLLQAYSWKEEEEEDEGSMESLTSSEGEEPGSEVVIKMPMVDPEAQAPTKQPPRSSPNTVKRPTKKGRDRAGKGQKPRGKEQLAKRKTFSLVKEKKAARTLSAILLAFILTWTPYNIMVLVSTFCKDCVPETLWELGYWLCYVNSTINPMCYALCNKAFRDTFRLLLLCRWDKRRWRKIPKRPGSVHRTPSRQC", "test": "Eurofins Lead Profiling radioligand binding", "settings": "title: 30 μM"}, "[10]": {"molecular_target": "Serotonin (5-HT3) (Homo sapiens, UniProt P46098)", "sequence (P46098 24-478)": "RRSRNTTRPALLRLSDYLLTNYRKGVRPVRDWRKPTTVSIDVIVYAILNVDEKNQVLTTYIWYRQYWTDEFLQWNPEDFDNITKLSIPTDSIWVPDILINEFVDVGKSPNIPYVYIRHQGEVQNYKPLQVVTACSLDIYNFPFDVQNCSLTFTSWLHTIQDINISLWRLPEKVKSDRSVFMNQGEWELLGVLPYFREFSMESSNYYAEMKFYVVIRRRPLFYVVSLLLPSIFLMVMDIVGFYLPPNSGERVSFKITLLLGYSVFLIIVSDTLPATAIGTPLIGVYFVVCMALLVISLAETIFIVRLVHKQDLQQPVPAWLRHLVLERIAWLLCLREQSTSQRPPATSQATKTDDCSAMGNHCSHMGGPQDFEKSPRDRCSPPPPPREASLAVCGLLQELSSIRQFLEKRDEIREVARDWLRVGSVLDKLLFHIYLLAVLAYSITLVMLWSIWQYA", "test": "Eurofins Lead Profiling radioligand binding", "settings": "title: 30 μM"}, "[11]": {"system": "Phorbol Ester", "test": "Eurofins Lead Profiling radioligand binding", "design": "species or system Mouse", "settings": "title: 30 μM"}, "[12]": {"molecular_target": "Endothelin ETB (Homo sapiens, UniProt P24530)", "test": "Eurofins Lead Profiling radioligand binding", "settings": "title: 30 μM"}, "[13]": {"molecular_target": "Muscarinic M2 (Homo sapiens, UniProt P08172)", "sequence (P08172 whole entry)": "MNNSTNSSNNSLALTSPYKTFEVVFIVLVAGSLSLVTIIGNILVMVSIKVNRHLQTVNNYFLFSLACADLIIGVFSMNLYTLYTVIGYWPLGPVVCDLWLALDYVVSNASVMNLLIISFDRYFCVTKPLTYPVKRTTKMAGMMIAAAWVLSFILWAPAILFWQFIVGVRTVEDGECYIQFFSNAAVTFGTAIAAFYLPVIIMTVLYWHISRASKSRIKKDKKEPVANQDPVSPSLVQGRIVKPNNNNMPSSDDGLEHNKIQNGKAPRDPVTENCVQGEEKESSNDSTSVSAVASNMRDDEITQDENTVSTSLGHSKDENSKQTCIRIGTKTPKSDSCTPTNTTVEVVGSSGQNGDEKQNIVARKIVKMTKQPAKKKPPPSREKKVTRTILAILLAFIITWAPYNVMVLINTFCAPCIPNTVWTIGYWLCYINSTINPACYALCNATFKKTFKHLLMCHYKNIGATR", "test": "Eurofins Lead Profiling radioligand binding", "settings": "title: 30 μM"}, "[14]": {"system": "Potassium Channel [KATP]", "test": "Eurofins Lead Profiling radioligand binding", "design": "species or system Hamster", "settings": "title: 30 μM"}, "[15]": {"system": "Imidazoline I2, Central", "test": "Eurofins Lead Profiling radioligand binding", "design": "species or system Rat", "settings": "title: 30 μM"}, "[16]": {"molecular_target": "Neuropeptide Y Y2 (Homo sapiens, UniProt P49146)", "test": "Eurofins Lead Profiling radioligand binding", "settings": "title: 30 μM"}, "[17]": {"molecular_target": "Prostanoid EP4 (Homo sapiens, UniProt P35408)", "sequence (P35408 whole entry)": "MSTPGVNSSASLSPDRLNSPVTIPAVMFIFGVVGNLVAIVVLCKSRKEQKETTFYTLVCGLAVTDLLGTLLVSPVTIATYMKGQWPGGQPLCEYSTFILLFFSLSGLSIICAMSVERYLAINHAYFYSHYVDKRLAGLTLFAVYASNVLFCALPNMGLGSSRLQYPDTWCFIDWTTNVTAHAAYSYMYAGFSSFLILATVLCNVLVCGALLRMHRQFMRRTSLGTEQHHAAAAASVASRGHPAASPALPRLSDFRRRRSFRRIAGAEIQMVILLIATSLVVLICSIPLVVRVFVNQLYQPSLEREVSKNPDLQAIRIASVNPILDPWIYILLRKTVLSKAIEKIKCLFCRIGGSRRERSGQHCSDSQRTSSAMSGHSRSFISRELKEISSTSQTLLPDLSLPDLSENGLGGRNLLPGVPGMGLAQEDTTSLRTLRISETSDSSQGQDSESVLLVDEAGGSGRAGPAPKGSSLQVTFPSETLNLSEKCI", "test": "Eurofins Lead Profiling radioligand binding", "settings": "title: 30 μM"}, "[18]": {"molecular_target": "Calcium Channel N-Type (Rattus norvegicus, UniProt Q02294)", "test": "Eurofins Lead Profiling radioligand binding", "settings": "title: 30 μM"}, "[19]": {"system": "Glutamate, NMDA, Agonism", "test": "Eurofins Lead Profiling radioligand binding", "design": "species or system Rat", "settings": "title: 30 μM"}, "[20]": {"molecular_target": "Sigma σ1 (Homo sapiens, UniProt Q99720)", "sequence (Q99720 whole entry)": "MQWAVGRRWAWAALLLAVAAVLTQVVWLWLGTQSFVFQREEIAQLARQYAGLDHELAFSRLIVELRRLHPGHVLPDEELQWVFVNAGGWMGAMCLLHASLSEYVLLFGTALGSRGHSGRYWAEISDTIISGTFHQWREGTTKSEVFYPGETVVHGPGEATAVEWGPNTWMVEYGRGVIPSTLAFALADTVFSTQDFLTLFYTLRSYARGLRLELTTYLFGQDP", "test": "Eurofins Lead Profiling radioligand binding", "settings": "title: 30 μM"}, "[21]": {"molecular_target": "Adenosine A3 (Homo sapiens, UniProt P0DMS8)", "sequence (P0DMS8 whole entry)": "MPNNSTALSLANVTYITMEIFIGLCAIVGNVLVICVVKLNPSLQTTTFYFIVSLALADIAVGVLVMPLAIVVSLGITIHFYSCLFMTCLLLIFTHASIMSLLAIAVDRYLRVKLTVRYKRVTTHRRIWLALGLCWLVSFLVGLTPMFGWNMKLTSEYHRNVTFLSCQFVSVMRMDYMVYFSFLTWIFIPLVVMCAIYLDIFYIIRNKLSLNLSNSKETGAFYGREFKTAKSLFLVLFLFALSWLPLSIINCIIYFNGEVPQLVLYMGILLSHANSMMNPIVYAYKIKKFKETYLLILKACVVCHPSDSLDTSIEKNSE", "test": "Eurofins Lead Profiling radioligand binding", "settings": "title: 30 μM"}, "[22]": {"molecular_target": "Tachykinin NK1 (Homo sapiens, UniProt P25103)", "sequence (P25103 whole entry)": "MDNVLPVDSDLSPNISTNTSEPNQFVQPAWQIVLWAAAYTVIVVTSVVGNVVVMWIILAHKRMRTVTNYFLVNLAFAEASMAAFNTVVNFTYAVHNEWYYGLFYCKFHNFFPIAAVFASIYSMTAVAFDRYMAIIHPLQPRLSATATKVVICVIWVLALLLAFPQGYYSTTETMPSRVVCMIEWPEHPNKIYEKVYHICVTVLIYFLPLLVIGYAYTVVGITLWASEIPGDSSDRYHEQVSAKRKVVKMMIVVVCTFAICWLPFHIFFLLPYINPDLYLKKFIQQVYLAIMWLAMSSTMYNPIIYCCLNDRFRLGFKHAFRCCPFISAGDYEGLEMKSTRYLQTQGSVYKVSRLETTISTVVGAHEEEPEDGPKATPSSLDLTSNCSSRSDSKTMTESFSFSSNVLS", "test": "Eurofins Lead Profiling radioligand binding", "settings": "title: 30 μM"}, "[23]": {"molecular_target": "T1, hCav1.2 (Homo sapiens, UniProt Q13936)", "T1 construct": "host or cells: CHO", "test": "Cav1.2 calcium flux assay", "assay_type": "cell-based", "settings": "Ca2+ flux assay", "procedure": "% inhibition = 100 - (ΔRatio of test compound - ΔRatio of 1 µM control compound)/(ΔRatio of 0.3% DMSO - ΔRatio of 1 µM control compound)x100\nCav1.2 calcium flux assay protocol\nCHO cells stably expressing human Cav1.2/b2/a2/d1 hCav1.2/CHO were purchased from ChanTest. hCav1.2/CHO were plated in 384-well plates at a density of 1.0x10^4 cells/well, and cultured overnight. After the wash by HBSS + 20 mM HEPES buffer, cells were loaded with Fluo-4 dye for 1 hour at room temperature. After the wash by HBSS + 20mM HEPES buffer, the fluorescent intensity was measured by Panoptic and test compounds, control compounds (verapamil) or 0.3% DMSO were added to each well. The change of fluorescent intensity (ΔRatio) and % inhibition to compare the efficacy and potency of test compounds were calculated using the […]\nΔRatio = (fluorescent intensity at 300 seconds after compound addition)/(average of fluorescent […]\n% inhibition = 100 - (ΔRatio of test compound - ΔRatio of 10 µM control compound)/(ΔRatio of 0.3% DMSO - ΔRatio of 10 µM control compound)x100\nIn vitro Plasma protein binding and Brain homogenate binding: Determination of fraction unbound (f u) in plasma was conducted in vitro via equilibrium dialysis using HTDialysis (HTD) membrane plates. The top half of the plate was filled with 100 uL of Dubelco’s Phosphate Buffered Saline, pH 7.4 (DPBS). […]"}}}
{"compound": "O=C(NCc1ccc(OC(F)(F)F)cc1F)c1ccc2ncnn2c1", "note": "[Compound 19b]", "values": [{"measurement": "inhibition", "setting": "[1]", "value": 1, "unit": "%"}, {"measurement": "inhibition", "setting": "[2]", "value": 8, "unit": "%"}, {"measurement": "% Inhibition at 10 µM", "setting": "[3]", "value": -1, "unit": "%"}, {"measurement": "inhibition", "setting": "[4]", "value": 2, "unit": "%"}, {"measurement": "inhibition", "setting": "[5]", "value": 14, "unit": "%"}, {"measurement": "inhibition", "setting": "[6]", "value": 22, "unit": "%"}, {"measurement": "% Inhibition at 10 µM", "setting": "[7]", "value": -16, "unit": "%"}, {"measurement": "inhibition", "setting": "[8]", "value": 18, "unit": "%"}, {"measurement": "inhibition", "setting": "[9]", "value": 1, "unit": "%"}, {"measurement": "inhibition", "setting": "[10]", "value": 4, "unit": "%"}, {"measurement": "% Inhibition at 10 µM", "setting": "[11]", "value": 0, "unit": "%"}, {"measurement": "inhibition at 10 µM", "setting": "[12]", "value": 4, "unit": "%"}, {"measurement": "inhibition", "setting": "[13]", "value": -3, "unit": "%"}, {"measurement": "% Inhibition at 10 µM", "setting": "[14]", "value": 13, "unit": "%"}, {"measurement": "% Inhibition at 10 µM", "setting": "[15]", "value": 2, "unit": "%"}, {"measurement": "inhibition", "setting": "[16]", "value": -1, "unit": "%"}, {"measurement": "inhibition", "setting": "[17]", "value": 14, "unit": "%"}, {"measurement": "inhibition", "setting": "[18]", "value": -1, "unit": "%"}, {"measurement": "% Inhibition at 10 µM", "setting": "[19]", "value": -3, "unit": "%"}, {"measurement": "inhibition", "setting": "[20]", "value": 45, "unit": "%"}, {"measurement": "inhibition", "setting": "[21]", "value": 21, "unit": "%"}, {"measurement": "inhibition", "setting": "[22]", "value": 2, "unit": "%"}]}
{"compound": "O=C(NCc1ccc(OC(F)(F)F)cc1Cl)c1ccc2nncn2c1", "note": "[Compound 20]", "values": [{"measurement": "IC50", "setting": "[23]", "value": "> 30", "unit": "µM"}]}
